Laboratory results as given in patent publication US7803818B2, “Amorphous form of 1,2-dihydropyridine compound” (Eisai R&D Management Co., Ltd., priority 2005, dated 2010).

How the values were obtained:
[1] = Solubility in JP2 fluid after shaking 5 minutes (shake flask method); type: physicochemical; conditions: for Concentration (solubility in JP2 fluid after shaking 5 minutes): JP2 fluid pH 6.8, about 5 mg in 5 mL, shaking 5 minutes at room temperature, filtration, HPLC
Experimental: Measurement of Solubility in JP2 Fluid after Shaking 5 minutes (Shake Flask Method)
Sample solutions were prepared by placing each sample (about 5 mg) in test tube, adding 5 mL of “2nd fluid” as described in General Tests (disintegration test) of Japanese Pharmacopeia (JP2 fluid: pH 6.8), and shaking 5 minutes at room temperature, followed by filtration. These sample solutions were analyzed using high performance liquid chromatography (HPLC), and calculated the concentration.
HPLC System: LC-10AT System (from Shimadzu Corporation)
Detector: ultraviolet absorptiometer (wavelength: 290 nm)
Column: YMC Pack Pro C18, 4.6 mm I.D.×150 mm (from YMC, Japan)
Column temperature: 35° C.
Auto sampler temperature: 25° C.
A: water/acetonitrile/ammonium acetate (900:100:1, v/v/w)
B: water/acetonitrile/ammonium acetate (100:900:1, v/v/w)
(Isocratic Condition: B Concentration=40%)

AMPA receptor = conditions: see Patent Document 1 (WO/JP01/96308); cited from earlier work

Structure (SMILES): N#Cc1ccccc1-c1cc(-c2ccccn2)cn(-c2ccccc2)c1=O [Example 1]
- solubility in a solution such as JP2 fluid ([1]; JP2 fluid (2nd fluid of Disintegration Test, Japanese pharmacopoeia)): excellent solubility
- Concentration (solubility in JP2 fluid after shaking 5 minutes) [1]: 12.5 µg/mL

Structure (SMILES): N#Cc1ccccc1-c1cc(-c2ccccn2)cn(-c2ccccc2)c1=O [Reference Example 1, 3-(2-cyanophenyl)-5-(2-pyridyl)-1-phenyl-1,2-dihydropyridin-2-one, reference compound]
- Concentration (solubility in JP2 fluid after shaking 5 minutes) [1]: 4.8 µg/mL

Structure (SMILES): N#Cc1ccccc1-c1cc(-c2ccccn2)cn(-c2ccccc2)c1=O [compound (1), 3-(2-cyanophenyl)-5-(2-pyridyl)-1-phenyl-1,2-dihydropyridin-2-one]
- antagonistic action against AMPA receptor (AMPA receptor): significant antagonistic action
